Source: patent publication US8192962B2, “Processes for detecting toxic substances” (Daikin Industries, Ltd., priority 2001, dated 2012)

Tested on: Metabolism protein genes
Test: DNA chip mRNA expression in yeast, metabolism protein genes (Table 7)
Type: cell-based, Saccharomyces cerevisiae S288C
Experimental: Yeast (Saccharomyces cerevisiae S288C (α SUC2mal mel gap2 CUP1)) were incubated at 25° C. on YPD medium (yeast extract 1%, polypepton 2%, glucose 2%). One of toxic chemical substances was added to the cells at logarithmic growth phase, and the cells were further incubated for two hours. Cells were cultured without any chemical substance in the same condition, and were used as control. Concentrations of the chemical substances were defined to inhibit the growth of the yeast but not lead to death.
After completion of the incubation, the culture was centrifuged to collect the cells. To the cells, sodium acetate buffer (50 mM sodium acetate, 10 mM EDTA, 1% SDS) was added, and the mixture was shaken at 65° C. for five minutes, followed by returning to room temperature, and obtaining the supernatant, of which the procedures were repeated two times. To the supernatant, ½ amount of a solution of phenol/chloroform was added, and the mixture was centrifuged to give a supernatant, which was added with an equal amount of chloroform, and the mixture was centrifuged to give a supernatant. To the supernatant, an equal amount of isopropanol containing 0.3 M sodium acetate was added, and the mixture was allowed to stand at room temperature for 30 minutes, after which the mixture was centrifuged to give a sediment of the whole RNAs. Seventy % ethanol was added to the sediment, and the mixture was again centrifuged to give a sediment, which was then dried and dissolved in water. mRNA was isolated from the whole RNAs as followings. In view of the fact that a poly A chain is attached to the 3′ terminus of mRNA, a polynucleotide having a poly T structure which was immobilized on the surface of latex beads was used to trap the mRNA, and then the mRNA was washed and eluted with spine column (Oligotex-dT30<Super>mRNA Purification Kit, Takara). Reverse transcription of the mRNA was conducted with a reverse transcriptase (Super Script II Reverse Transcriptase; catalogue No. 18064-014, GibcoBRL) using fluorescence-labeled nucleotides to give cDNAs that were introduced with Cy3-dUTP or Cy5-dUTP during the reverse transcription.
The labeled cDNAs were dissolved in TE buffer (10mM Tris-HCl/1 mM EDTA, pH8.0), and the solution was dropped on the DNA chip containing the whole genes of yeast (DNA Chip Research Inc. Japan) so that the cDNAs were hybridized on the DNA chip at 65° C. for over 12 hours. The fluoresces intensity of the DNA chip was read with a scanner, and the ratio relative to the fluorescence intensity resulting from the absence of chemical substance was estimated as the following, which is shown in Tables 1 to 9: […]

CCCCC[C@H](O)CC(=O)CCc1ccc(O)c(OC)c1 [(13), gingerol]
The level of expressed mRNA in the presence of chemical substance/The level of expressed mRNA in the absence of chemical substance (yeast gene YJL099W): 2.4 | level of expressed mRNA in the presence/in the absence of chemical substance (yeast gene YJL121C): 0.7 | level of expressed mRNA in the presence/in the absence of chemical substance (yeast gene YJL167W): 0.9 | The level of expressed mRNA in the presence of chemical substance/The level of expressed mRNA in the absence of chemical substance (yeast gene YJL172W): 3.1 | level of expressed mRNA in the presence/in the absence of chemical substance (yeast gene YJL216C): 1.1 | level of expressed mRNA in the presence/in the absence of chemical substance (yeast gene YJR077C): 0.9 | The level of expressed mRNA in the presence of chemical substance/The level of expressed mRNA in the absence of chemical substance (yeast gene YJR137C): 2.1 | level of expressed mRNA in the presence/in the absence of chemical substance (yeast gene YJR143C): 0.3 | The level of expressed mRNA in the presence of chemical substance/The level of expressed mRNA in the absence of chemical substance (yeast gene YJR148W): 1.1 | The level of expressed mRNA in the presence of chemical substance/The level of expressed mRNA in the absence of chemical substance (yeast gene YJR155W): 5.7 | The level of expressed mRNA in the presence of chemical substance/The level of expressed mRNA in the absence of chemical substance (yeast gene YKL035W): 2.0 | level of expressed mRNA in the presence/in the absence of chemical substance (yeast gene YKL060C): 1.2 | The level of expressed mRNA in the presence of chemical substance/The level of expressed mRNA in the absence of chemical substance (yeast gene YKL091C): 2.0 | The level of expressed mRNA in the presence of chemical substance/The level of expressed mRNA in the absence of chemical substance (yeast gene YKL104C): 2.2 | level of expressed mRNA in the presence/in the absence of chemical substance (yeast gene YKL148C): 0.8 | The level of expressed mRNA in the presence of chemical substance/The level of expressed mRNA in the absence of chemical substance (yeast gene YKL152C): 2.7 | level of expressed mRNA in the presence/in the absence of chemical substance (yeast gene YKL157W): 2.3 | The level of expressed mRNA in the presence of chemical substance/The level of expressed mRNA in the absence of chemical substance (yeast gene YKL213C): 2.1 | The level of expressed mRNA in the presence of chemical substance/The level of expressed mRNA in the absence of chemical substance (yeast gene YKL215C): 2.6 | level of expressed mRNA in the presence/in the absence of chemical substance (yeast gene YKR034W): 1.2 | The level of expressed mRNA in the presence of chemical substance/The level of expressed mRNA in the absence of chemical substance (yeast gene YKR039W): 1.3 | The level of expressed mRNA in the presence of chemical substance/The level of expressed mRNA in the absence of chemical substance (yeast gene YLL058W): 2.3 | level of expressed mRNA in the presence/in the absence of chemical substance (yeast gene YLR006C): 0.8 | level of expressed mRNA in the presence/in the absence of chemical substance (yeast gene YLR044C): 1.7 | level of expressed mRNA in the presence/in the absence of chemical substance (yeast gene YLR056W): 0.2 | level of expressed mRNA in the presence/in the absence of chemical substance (yeast gene YLR058C): 0.3 | level of expressed mRNA in the presence/in the absence of chemical substance (yeast gene YLR081W): 0.6 | level of expressed mRNA in the presence/in the absence of chemical substance (yeast gene YLR089C): 1.0 | The level of expressed mRNA in the presence of chemical substance/The level of expressed mRNA in the absence of chemical substance (yeast gene YLR180W): 0.6 | The level of expressed mRNA in the presence of chemical substance/The level of expressed mRNA in the absence of chemical substance (yeast gene YLR273C): 1.7 | level of expressed mRNA in the presence/in the absence of chemical substance (yeast gene YLR284C): 0.8 | The level of expressed mRNA in the presence of chemical substance/The level of expressed mRNA in the absence of chemical substance (yeast gene YLR299W): 2.9 | level of expressed mRNA in the presence/in the absence of chemical substance (yeast gene YLR304C): 0.5 | The level of expressed mRNA in the presence of chemical substance/The level of expressed mRNA in the absence of chemical substance (yeast gene YLR307W): 1.0 | The level of expressed mRNA in the presence of chemical substance/The level of expressed mRNA in the absence of chemical substance (yeast gene YLR348C): 1.9 | level of expressed mRNA in the presence/in the absence of chemical substance (yeast gene YLR354C): 1.0 | level of expressed mRNA in the presence/in the absence of chemical substance (yeast gene YLR372W): 0.1 | level of expressed mRNA in the presence/in the absence of chemical substance (yeast gene YML022W): 0.2 | level of expressed mRNA in the presence/in the absence of chemical substance (yeast gene YMR011W): 0.4 | level of expressed mRNA in the presence/in the absence of chemical substance (yeast gene YMR015C): 0.4 | level of expressed mRNA in the presence/in the absence of chemical substance (yeast gene YMR083W): 0.9 | The level of expressed mRNA in the presence of chemical substance/The level of expressed mRNA in the absence of chemical substance (yeast gene YMR189W): 0.9 | level of expressed mRNA in the presence/in the absence of chemical substance (yeast gene YMR205C): 1.3 | level of expressed mRNA in the presence/in the absence of chemical substance (yeast gene YMR261C): 1.6 | The level of expressed mRNA in the presence of chemical substance/The level of expressed mRNA in the absence of chemical substance (yeast gene YMR296C): 0.9 | level of expressed mRNA in the presence/in the absence of chemical substance (yeast gene YMR323W): 1.8 | The level of expressed mRNA in the presence of chemical substance/The level of expressed mRNA in the absence of chemical substance (yeast gene YNL012W): 2.9 | level of expressed mRNA in the presence/in the absence of chemical substance (yeast gene YNL025C): 1.3 | The level of expressed mRNA in the presence of chemical substance/The level of expressed mRNA in the absence of chemical substance (yeast gene YNL037C): 1.9 | The level of expressed mRNA in the presence of chemical substance/The level of expressed mRNA in the absence of chemical substance (yeast gene YNL045W): 2.6 | The level of expressed mRNA in the presence of chemical substance/The level of expressed mRNA in the absence of chemical substance (yeast gene YNL104C): 2.1 | The level of expressed mRNA in the presence of chemical substance/The level of expressed mRNA in the absence of chemical substance (yeast gene YNL106C): 0.9 | The level of expressed mRNA in the presence of chemical substance/The level of expressed mRNA in the absence of chemical substance (yeast gene YNL169C): 1.7 | level of expressed mRNA in the presence/in the absence of chemical substance (yeast gene YNL192W): 2.7 | The level of expressed mRNA in the presence of chemical substance/The level of expressed mRNA in the absence of chemical substance (yeast gene YNL322C): 0.8 | The level of expressed mRNA in the presence of chemical substance/The level of expressed mRNA in the absence of chemical substance (yeast gene YNL331C): 3.1 | The level of expressed mRNA in the presence of chemical substance/The level of expressed mRNA in the absence of chemical substance (yeast gene YNL332W): 2.1 | The level of expressed mRNA in the presence of chemical substance/The level of expressed mRNA in the absence of chemical substance (yeast gene YNR002C): 2.1 | The level of expressed mRNA in the presence of chemical substance/The level of expressed mRNA in the absence of chemical substance (yeast gene YNR019W): 2.1 | The level of expressed mRNA in the presence of chemical substance/The level of expressed mRNA in the absence of chemical substance (yeast gene YNR059W): 2.4 | The level of expressed mRNA in the presence of chemical substance/The level of expressed mRNA in the absence of chemical substance (yeast gene YOL058W): 1.2 | level of expressed mRNA in the presence/in the absence of chemical substance (yeast gene YOL086C): 1.7 | level of expressed mRNA in the presence/in the absence of chemical substance (yeast gene YOL108C): 1.3 | level of expressed mRNA in the presence/in the absence of chemical substance (yeast gene YOL116W): 0.8 | The level of expressed mRNA in the presence of chemical substance/The level of expressed mRNA in the absence of chemical substance (yeast gene YOL143C): 1.2 | level of expressed mRNA in the presence/in the absence of chemical substance (yeast gene YOL156W): 1.7 | The level of expressed mRNA in the presence of chemical substance/The level of expressed mRNA in the absence of chemical substance (yeast gene YOL165C): 3.7 | level of expressed mRNA in the presence/in the absence of chemical substance (yeast gene YOR002W): 0.6 | level of expressed mRNA in the presence/in the absence of chemical substance (yeast gene YOR085W): 1.0 | The level of expressed mRNA in the presence of chemical substance/The level of expressed mRNA in the absence of chemical substance (yeast gene YOR099W): 1.6 | level of expressed mRNA in the presence/in the absence of chemical substance (yeast gene YOR103C): 0.8 | level of expressed mRNA in the presence/in the absence of chemical substance (yeast gene YOR108W): 1.3 | level of expressed mRNA in the presence/in the absence of chemical substance (yeast gene YOR128C): 0.4 | The level of expressed mRNA in the presence of chemical substance/The level of expressed mRNA in the absence of chemical substance (yeast gene YOR130C): 2.1 | The level of expressed mRNA in the presence of chemical substance/The level of expressed mRNA in the absence of chemical substance (yeast gene YOR136W): 1.5 | level of expressed mRNA in the presence/in the absence of chemical substance (yeast gene YOR142W): 1.4 | level of expressed mRNA in the presence/in the absence of chemical substance (yeast gene YOR176W): 1.5 | level of expressed mRNA in the presence/in the absence of chemical substance (yeast gene YOR178C): 1.0 | level of expressed mRNA in the presence/in the absence of chemical substance (yeast gene YOR251C): 1.0 | The level of expressed mRNA in the presence of chemical substance/The level of expressed mRNA in the absence of chemical substance (yeast gene YOR336W): 2.1 | The level of expressed mRNA in the presence of chemical substance/The level of expressed mRNA in the absence of chemical substance (yeast gene YOR347C): 1.8 | level of expressed mRNA in the presence/in the absence of chemical substance (yeast gene YOR348C): 1.1 | The level of expressed mRNA in the presence of chemical substance/The level of expressed mRNA in the absence of chemical substance (yeast gene YPL017C): 1.9 | level of expressed mRNA in the presence/in the absence of chemical substance (yeast gene YPL028W): 0.9 | level of expressed mRNA in the presence/in the absence of chemical substance (yeast gene YPL057C): 1.3 | level of expressed mRNA in the presence/in the absence of chemical substance (yeast gene YPL135W): 1.2 | level of expressed mRNA in the presence/in the absence of chemical substance (yeast gene YPL148C): 0.6 | level of expressed mRNA in the presence/in the absence of chemical substance (yeast gene YPR113W): 0.7 | level of expressed mRNA in the presence/in the absence of chemical substance (yeast gene YPR165W): 1.0 | The level of expressed mRNA in the presence of chemical substance/The level of expressed mRNA in the absence of chemical substance (yeast gene YPR167C): 1.9 | level of expressed mRNA in the presence/in the absence of chemical substance (yeast gene YPR183W): 1.6
